Earlier results on 1 molecule are cited in US11147307B2, “Flavor capsules for smoking articles” (PHILIP MORRIS PRODUCTS S.A., priority 2015, dated 2021).

Regarding `OC[C@@H](O)[C@@H](O[C@H]1O[C@H](CO)[C@@H](O)[C@H](O)[C@H]1O)[C@H](O)[C@@H](O)CO` [maltitol], the solubility in water result is on record as “about 200 g/100 ml”.
